Source: BigSolDB 2.1

CCOC(=O)c1ccc(N)cc1
solubility (mole fraction)
Conditions	in cyclohexane	in isopropyl myristate	in n-octanol	in water
298.15 K	0.00107	0.0637	0.0628	0.000105
303.15 K	0.00134	0.0764	0.0753	0.000126
308.15 K	0.00185	0.102	0.0916	0.000159
313.15 K	0.00225	0.121	0.113	0.000186
